The values below come from US6875760B2 (Novo Nordisk A/S, priority 1999, dated 2005).

One series deals with T1, human glucagon receptor (Homo sapiens, UniProt P47871).
T1 construct: expressed in transfected cells; host or cells: BHK (baby hamster kidney) cells
As to the kind of experiment: Glucagon Binding Assay (III). The following applies: Glu Bd Assay (III) IC50 (nM), BHK cell membranes, WGA SPA beads, 125I-glucagon. The method, boiled down: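 Non-specific binding was set with 500 nM glucagon in this SPA-type binding assay using WGA beads. The receptor source was a membrane preparation, kept on ice or at 4 °C, from BHK cells transfected with the human receptor. Scintillation counts were taken after 4 hours of shaking and 8–48 hours of settling.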

T1 sequence (P47871 26-477): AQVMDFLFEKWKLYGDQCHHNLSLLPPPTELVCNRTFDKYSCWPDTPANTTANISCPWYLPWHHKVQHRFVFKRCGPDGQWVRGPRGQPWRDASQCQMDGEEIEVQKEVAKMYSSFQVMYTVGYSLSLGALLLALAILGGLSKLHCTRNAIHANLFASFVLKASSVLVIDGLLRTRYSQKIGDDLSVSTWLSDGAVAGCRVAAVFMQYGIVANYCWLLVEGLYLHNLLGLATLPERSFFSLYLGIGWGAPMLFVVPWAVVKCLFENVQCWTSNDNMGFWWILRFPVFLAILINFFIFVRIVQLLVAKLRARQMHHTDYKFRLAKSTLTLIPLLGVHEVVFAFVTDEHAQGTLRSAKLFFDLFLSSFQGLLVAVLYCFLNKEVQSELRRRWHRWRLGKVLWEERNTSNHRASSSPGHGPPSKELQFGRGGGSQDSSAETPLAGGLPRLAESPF

The melting point is the temperature of the solid-liquid transition. The IC50 is the point on the concentration scale where inhibition reaches its midpoint. `CC(C)(C)[C@H]1CC[C@H](N(Cc2ccc(C(=O)NCCC(=O)O)cc2)C(=O)Nc2ccc(OC(F)(F)F)cc2)CC1` [Example 92, 3-{4-[1-(4-trans-tert-Butylcyclohexyl)-3-(4-trifluoromethoxyphenyl)ureidomethyl]benzoylamino}propionic acid]: the melting point lay within 152 to 154 °C. The compound further registered an IC50 on human glucagon receptor of 47 nM.
